According to patent publication US20180343865A1, “HERBICIDAL COMPOSITIONS COMPRISING ISOXAZOLO[5,4-B]PYRIDINES” (BASF SE, priority 2015, published 2018):

Experiments:
Type in all cases: in vivo
[1] = system: Abutilon theoprasti; assay: Greenhouse postemergence herbicidal activity on ABUTH, 20 DAT; conditions: for % activity, solo MCPA: 20 DAT
Procedure: (§1) For the post emergence treatment, the plants were first grown to the 2 leaf station (GS 12) and applied at GS 12-19 depending on the species. The herbicidal compositions were suspended or emulsified in water as distribution medium and sprayed using finely distributing nozzles.
(§2) The plants have been cultivated due to their individual requirements at 10 to 25° C. and. 20 to 35° C. The plants were irrigated due to their necessity.
(§3) The respective stated components A), were formulated as a 5% by weight strength emulsion concentrate containing wettol EM 31 20% and Cyclohexanone 80%. The respective stated components B), were formulated as either emulsifiable concentrates (EC), soluble liquids (SL), suspension concentrates (SC) or soluble granules (SG) as indicated in the table below. Component A, component B and the solvent system are introduced into the spray liquor used for applying the active compound. In the examples, the solvent used was water containing 1% Dash (Agnique ME 181 37.5%, Lutensit A-EP 22.5%, and Oleic Acid 5%) and 2% ammonium suflate.
(§4) In the following experiments, the herbicidal activity for the individual herbicide compounds (solo and mixture applications), the herbicidal succession was assessed 20 days after treatment (DAT). The evaluation for the damage on undesired weeds caused by the chemical compositions was carried out using a scale from 0 to 100%, compared to the untreated control plants. Here, 0 means no damage and 100 means complete destruction of the plants. The plants used in the greenhouse experiments belonged to the following species:
(§5) The value E, which corresponds to the effect (in %) that is to be expected if the activity of the individual compounds is additive, was calculated using the method of S. R. Colby (1967) “Calculating synergistic and antagonistic responses of herbicide combinations”, Weeds 15, p. 22 ff. Colby calculation for 2 way mixtures:
(§6) where: • X=effect in percent using herbicide A at an application rate a; • Y=effect in percent using herbicide B at an application rate b; • E=expected effect (in %) of A+B at application rates a+b
(§7) If the value observed in this manner is higher than the value E calculated according to Colby, a synergistic effect is present.

[2] = system: Setaria viridis; assay: Greenhouse postemergence herbicidal activity on SETVI, 20 DAT; conditions: post-emergence, 62.5 gai/ha, read-out: % activity, solo application dicuran
Procedure: as §1, §2
The respective stated components A), were formulated as a 5% by weight strength emulsion concentrate containing wettol EM 31 20% and Cyclohexanone 80%. The respective stated components B), were formulated as either emulsifiable concentrates (EC), soluble liquids (SL), suspension concentrates (SC) or soluble granules (SG) as indicated in the table below. […]
In the following experiments, the herbicidal activity for the individual herbicide compounds (solo and mixture applications), the herbicidal succession was assessed 20 days after treatment (DAT). […]
The value E, which corresponds to the effect (in %) that is to be expected if the activity of the individual compounds is additive, was calculated using the method of S. R. Colby (1967) “Calculating synergistic and antagonistic responses of herbicide combinations”, Weeds 15, p. […]
as §7

[3] = system: Polygonum convolvulus; assay: Greenhouse postemergence herbicidal activity on POLCO, 20 DAT; conditions: for % activity, solo MCPA: 20 DAT
Procedure: as §1, §2, §3, §4, §5, §6, §7

[4] = system: Amaranthus retroflexus; assay: Greenhouse postemergence herbicidal activity on AMARE, 20 DAT; conditions: for % activity, solo MCPA: 20 DAT
Procedure: as §1, §2, §3, §4, §5, §6, §7

[5] = system: Chenopodium album; assay: Greenhouse postemergence herbicidal activity on CHEAL, 20 DAT
Procedure: as §1, §2, §3, §4, §5, §6, §7

[6] = system: Conyza canadiensis; assay: Greenhouse postemergence herbicidal activity on ERICA, 20 DAT
Procedure: as §1, §2, §3, §4, §5, §6, §7

[7] = system: Ipomoea hederacea; assay: Greenhouse postemergence herbicidal activity on IPOHE, 20 DAT; conditions: for % activity, solo MCPA: 20 DAT
Procedure: as §1, §2, §3, §4, §5, §6, §7

[8] = system: Matricaria chamomilla; assay: Greenhouse postemergence herbicidal activity on MATCH, 20 DAT; conditions: for % activity, solo MCPA: 20 DAT
Procedure: as §1, §2, §3, §4, §5, §6, §7

[9] = system: Stellaria media; assay: Greenhouse postemergence herbicidal activity on STEME, 20 DAT; conditions: for % activity, solo MCPA: 20 DAT
Procedure: as §1, §2, §3, §4, §5, §6, §7

[10] = system: Galium aparine; assay: Greenhouse postemergence herbicidal activity on GALAP, 20 DAT; conditions: Galium aparine, post-emergence, 62.5 gai/ha, read-out: % activity, solo application dicuran
Procedure: as §1, §2, §3, §4, §5, §6, §7

[11] = system: ALOMY; assay: Greenhouse postemergence herbicidal activity on ALOMY, 20 DAT; conditions: Alopecurus myosuroides, post-emergence, 62.5 gai/ha, read-out: % activity, solo application dicuran
[12] = system: APESV; assay: Greenhouse postemergence herbicidal activity on APESV, 20 DAT; conditions: post-emergence, 62.5 gai/ha, read-out: % activity, solo application dicuran
[13] = system: AVEFA; assay: Greenhouse postemergence herbicidal activity on AVEFA, 20 DAT; conditions: Avena fatua, post-emergence, 62.5 gai/ha, read-out: % activity, solo application dicuran
[14] = system: BROST; assay: Greenhouse postemergence herbicidal activity on BROST, 20 DAT; conditions: post-emergence, 62.5 gai/ha, read-out: % activity, solo application dicuran
[15] = system: CONAR; assay: Greenhouse postemergence herbicidal activity on CONAR, 20 DAT; conditions: post-emergence, 62.5 gai/ha, read-out: % activity, solo application dicuran
[16] = system: DIGSA; assay: Greenhouse postemergence herbicidal activity on DIGSA, 20 DAT; conditions: Digitaria sanguinalis, post-emergence, 62.5 gai/ha, read-out: % activity, solo application dicuran
[17] = system: Ambrosia elatior; assay: Greenhouse postemergence herbicidal activity on AMBEL, 20 DAT; conditions: for % activity, solo MCPA: AMBEL, postemergence, 20 DAT
Procedure: as §1, §2, §3, §4, §5, §6, §7

[18] = system: Polygonum persicaria; assay: Greenhouse postemergence herbicidal activity on POLPE, 20 DAT; conditions: for % activity, solo MCPA: postemergence, 20 DAT
Procedure: as §1, §2, §3, §4, §5, §6, §7

[19] = system: Sorghum bicolor; assay: Greenhouse postemergence herbicidal activity on SORVU, 20 DAT
Procedure: as §1, §2, §3, §4, §5, §6, §7

[20] = system: Polygonum aviculare; assay: Greenhouse postemergence herbicidal activity on POLAV, 20 DAT
Procedure: as §1, §2, §3, §4, §5, §6, §7

[21] = Ambrosia artemisiifolia, post-emergence, 480 h, read-out: % activity, solo metsulfuron
[22] = Fallopia convolvulus, post-emergence, 480 h, read-out: % activity, solo metsulfuron
[23] = Persicaria maculosa, post-emergence, 480 h, read-out: % activity, solo metsulfuron
[24] = Sorghum bicolor, post-emergence, 480 h, read-out: % activity, solo metsulfuron

In the case of `Cc1ccc(NC(=O)N(C)C)cc1Cl` [dicuran, Chlorotoluron], the inhibition at 62.5 g/ha ([1]; Abutilon, post-emergence, 62.5 gai/ha, read-out: % activity, solo application dicuran) is reported as 50%, the inhibition at 62.5 g/ha [2] is reported as 0% and the inhibition at 62.5 g/ha ([3]; Fallopia convolvulus, post-emergence, POLCO, 62.5 gai/ha, postemergence, read-out: % activity, solo application dicuran) is reported as 80%. It also gave an inhibition at 62.5 g/ha ([4]; Amaranthus retroflexus, post-emergence, AMARE, 62.5 gai/ha, postemergence, read-out: % activity, solo application dicuran) of 60%, an inhibition at 62.5 g/ha ([5]; Chenopodium album, post-emergence, 62.5 gai/ha, read-out: % activity, solo application dicuran) of 90% and an inhibition at 62.5 g/ha ([6]; Conyza, post-emergence, ERICA, 62.5 gai/ha, postemergence, read-out: % activity, solo application dicuran) of 75%. It also gave an inhibition at 62.5 g/ha ([7]; Ipomoea hederacea, post-emergence, 62.5 gai/ha, read-out: % activity, solo application dicuran) of 85%, an inhibition at 62.5 g/ha ([8]; Matricaria chamomilla, post-emergence, 62.5 gai/ha, read-out: % activity, solo application dicuran) of 85% and an inhibition at 62.5 g/ha ([9]; Stellaria media, post-emergence, STEME, 62.5 gai/ha, postemergence, read-out: % activity, solo application dicuran) of 85%. For the same compound, the inhibition at 62.5 g/ha [10] was 35%, the inhibition at 62.5 g/ha [11] was 0% and the inhibition at 62.5 g/ha [12] was 0%. The inhibition at 62.5 g/ha [13] was 0%, the inhibition at 62.5 g/ha [14] was 0% and the inhibition at 62.5 g/ha [15] was 0%. The inhibition at 62.5 g/ha [16] was 0%.

`COc1nc(C)nc(=NC(=O)NS(=O)(=O)c2ccccc2C(=O)O)[nH]1` [metsulfuron, Metsulfuron] was tested, and the inhibition at 0.25 g/ha [17, 21] was 0%, the inhibition at 0.5 g/ha [17, 21] was 5% and the inhibition at 1 g/ha [17, 21] was 98%. The inhibition at 0.5 g/ha [3, 22] was 70%, the inhibition at 1 g/ha [3, 22] was 95% and the inhibition at 1 g/ha ([4]; Amaranthus retroflexus, post-emergence, 480 h, read-out: % activity, solo metsulfuron) was 95%. The inhibition at 0.5 g/ha ([6]; Conyza, post-emergence, 480 h, read-out: % activity, solo metsulfuron) was 90%, the inhibition at 0.5 g/ha [18, 23] was 95% and the inhibition at 1 g/ha [18, 23] was 95%. It also gave an inhibition at 0.25 g/ha ([9]; Stellaria media, post-emergence, 480 h, read-out: % activity, solo metsulfuron) of 98%, an inhibition at 0.5 g/ha [19, 24] of 20% and an inhibition at 1 g/ha [19, 24] of 35%.

In the case of `Cc1cc(Cl)ccc1OCC(=O)O` [MCPA], the “% activity, solo MCPA” value ([1]; 50 gai/ha) is reported as 60%, the “% activity, solo MCPA” value ([1]; 200 gai/ha) is reported as 75% and the “% activity, solo MCPA” value ([17]; 50 gai/ha) is reported as 65%. For the same compound, the “% activity, solo MCPA” value ([17]; 100 gai/ha) was 65%, the “% activity, solo MCPA” value ([3]; POLCO, 50 gai/ha, postemergence) was 0% and the “% activity, solo MCPA” value ([3]; POLCO, 100 gai/ha, postemergence) was 0%. The “% activity, solo MCPA” value ([3]; POLCO, 200 gai/ha, postemergence) was 0%, the “% activity, solo MCPA” value ([4]; AMARE, 50 gai/ha, postemergence) was 55% and the “% activity, solo MCPA” value ([4]; AMARE, 100 gai/ha, postemergence) was 65%. For the same compound, the “% activity, solo MCPA” value ([4]; AMARE, 200 gai/ha, postemergence) was 90%, the “% activity, solo MCPA” value ([5]; 200 gai/ha, 20 DAT) was 90% and the “% activity, solo MCPA” value ([6]; ERICA, 50 gai/ha, postemergence, 20 DAT) was 60%. The “% activity, solo MCPA” value ([7]; 50 gai/ha) was 98%, the “% activity, solo MCPA” value ([7]; 100 gai/ha) was 98% and the “% activity, solo MCPA” value ([7]; 200 gai/ha) was 98%. The “% activity, solo MCPA” value ([8]; 50 gai/ha) was 20%, the “% activity, solo MCPA” value ([8]; 100 gai/ha) was 30% and the “% activity, solo MCPA” value ([20]; 50 gai/ha) was 10%. For the same compound, the “% activity, solo MCPA” value ([20]; 100 gai/ha) was 70%, the “% activity, solo MCPA” value ([20]; 200 gai/ha) was 98% and the “% activity, solo MCPA” value ([18]; POLPE, 50 gai/ha) was 20%. The “% activity, solo MCPA” value ([18]; POLPE, 200 gai/ha) was 60%, the “% activity, solo MCPA” value ([18]; POPLE, 100 gai/ha) was 35% and the “% activity, solo MCPA” value ([9]; STEME, 50 gai/ha, postemergence) was 0%. For the same compound, the “% activity, solo MCPA” value ([9]; STEME, 100 gai/ha, postemergence) was 0%, the “% activity, solo MCPA” value ([9]; STEME, 200 gai/ha, postemergence) was 20% and the “% activity, solo MCPA” value ([19]; SORVU, 200 gai/ha, postemergence, 20 DAT) was 30%.
